Results reported in patent US20200231562A1, “NOVEL MACROLIDE ANTIBIOTICS” (HELMHOLTZ-ZENTRUM FÜR INFEKTIONSFORSCHUNG GMBH, priority 2014, published 2020).
≈ marks a conversion by molar mass, not a printed value.

Experiments:
[1] = system: transformed lung epithelial A-549 cells; assay: MTT assay, cytotoxic activity; format: cell-based, human; conditions: incubation 24 or 48 hours
Protocol: (§1) The cytotoxic activity of gulmirecin A (3) and gulmirecin B (4) against human cells was evaluated in the well-established MTT assay using primary monocytes from human peripheral blood as well as transformed lung epithelial cell A-549 cell and leukemic Mono Mac 6 cells. Furthermore, 3 and 4 were tested against K-562, HUVEC, and HeLa cells.
(§2) The human monocytic cell line Mono Mac 6 was cultured in RPMI 1640 medium supplemented with FCS (10%, v/v), penicillin (100 U/ml), streptomycin (100 μg/ml), insulin (10 μg/ml), oxaloacetic acid (1 mM), sodium pyruvate (1 mM), and 1× non-essential amino acids at 37° C. and 5% CO2. A-549 cells (DSM ACC-107) were cultured in DMEM high glucose (4.5 g/l) medium supplemented with FCS (10% v/v), penicillin (100 U/ml) and streptomycin (100 μg/ml) at 37° C. in a 5% CO2 incubator. K-562 (DSM ACC 10) and HeLa cells (DSM ACC 57) were grown in RPMI 1640, whereas cells of HUVEC (ATCC CRL-1730) were cultured in DMEM medium. The respective media were supplemented with ultraglutamine 1 (10 ml/l), gentamicin sulfate (500 μl/l), and FCS (10% v/v).
(§3) Cells (3×10^5 Mono Mac 6, 1×10^5 A-549 cells, or 2×10^6 monocytes per well) were seeded in a 96-well plate in the respective medium (100 μl/well). Monocytes were allowed to adhere for 1.5 hours (37° C., 5% CO2) prior to treatment. Test compounds (0.3% DMSO as vehicle) were added to each well and samples were incubated for 48 hrs. Then, 20 μl of thiazolyl blue tetrazolium bromide (MTT, 5 mg/ml PBS) were added, and the incubation was continued at 37° C., 5% CO2 until blue staining of the vehicle control. Formazan formation was stopped by adding 100 μl of lysis buffer (SDS, 10%, w/v in 20 mM HCl) and samples were shaken overnight. Absorbance of each well was measured at 570 nm in a Multiskan™ microplate spectrophotometer (Thermo Scientific).

[2] = system: Staphylococcus aureus SG511; assay: Agar diffusion assay; format: cell-based; conditions: 50 μL of 0.5 mg in 1 mL methanol per 7 mm hole, n.a. = no activity observed, read-out: diameter of inhibition zone
Protocol: (§4) Antimicrobial activities of the gulmirecins were determined in a primary screen against Bacillus subtilis ATCC 6633, Staphylococcus aureus SG511, Staphylococcus auricularis DSM 20609, Mycobacterium vaccae IMET 10670, Pseudomonas aeruginosa K799/61, Escherichia coli SG458, Sporobolomyces salmonicolor SBUG 549, Candida albicans ATCC14053 and Penicillium notatum JP 36. To this end, holes with 7 mm diameter were aseptically punched in the respective agar medium. Subsequently, the agar plates were inoculated with the test organisms. 0.5 mg of every test compound was dissolved in 1 mL of methanol, and 50 μL of this solution was transferred to a single hole. Ciprofloxacin and amphotericin B served as positive controls. After evaporation of the solvent, the agar plates were incubated depending on the growth conditions of the test organisms. […] The test results are shown in Table 6 below, wherein the given values represent the diameters of the respective inhibition zone in the agar diffusion assay.

[3] = system: Staphylococcus auricularis DSM 20609; assay: Agar diffusion assay; format: cell-based; conditions: DSM20609, 50 μL of 0.5 mg in 1 mL methanol per 7 mm hole, n.a. = no activity observed, read-out: diameter of inhibition zone
Protocol: as §4

[4] = system: S. auricularis A; assay: Bouillon dilution assay (MIC90); format: cell-based; conditions: Staphylococcus auricularis, tryptic soy broth, 37° C., 16 h
Protocol: (§5) Before incubation, 3 was added in decreasing concentrations ([…] to 12.5 μg/ml). After incubation, the OD600 was measured. The experiment was run in triplicate. Ciprofloxacin was used as a positive control.

[5] = system: methicillin-resistant S. aureus (MRSA); assay: Bouillon dilution assay (MIC90); format: cell-based; conditions: Staphylococcus aureus, tryptic soy broth, 37° C., 16 h
Protocol: as §5

[6] = system: leukemic Mono Mac 6 cells; assay: MTT assay, cytotoxic activity; format: cell-based, human; conditions: incubation 24 or 48 hours
Protocol: as §1, §2
as §3, with “Test compounds (0.3% DMSO as vehicle) were added to each well and samples were incubated for 48 hrs.” left out

[7] = system: HUVEC cells; assay: Antiproliferative effect (methylene blue staining); format: cell-based, human; conditions: at a concentration of 100 μM
Protocol: as §2
(§6) The test substances were dissolved in methanol before being diluted in DMEM. The adherent cells were harvested at the logarithmic growth phase after soft trypsinization using 0.25% trypsin in PBS containing 0.02% EDTA. For each experiment, approximately 10,000 cells were seeded with 0.1 ml culture medium per well of the 96-well microplates. […] In case of K-562 cells, the number of viable cells in every well was determined using the CellTiter-Blue1 assay. […] The optical densities were measured at 660 nm in a SUNRISE microplate reader (TECAN).

[8] = system: K-562 cells; assay: Antiproliferative effect (CellTiter-Blue); format: cell-based, human; conditions: K-562, at a concentration of 100 μM
Protocol: as §2, §6

Structure (SMILES) | cell viability / cytotoxicity (MTT) [1] | zone of inhibition at 25 µg/hole [2] [mm] | zone of inhibition at 25 µg/hole [3] [mm] | MIC90 [4] [µM] | MIC90 [5] [µM] | cell viability / cytotoxicity (MTT) [6] | inhibition of proliferation [7] | inhibition of proliferation [8]
C/C=C(/C)[C@H]1C/C=C(\C)[C@@H](O[C@H]2O[C@H](CO)[C@@H](O)[C@@H]2O)[C@H](OC(=O)CC(C)C)C(=O)C[C@@H](O)[C@H](C)C(=O)O1 [Compound 3, gulmirecin A] | no reduction in cell viability at the concentrations required for antibacterial activity | 29 | 31 | 22.5 (≈ 12.2 µg/mL) | 23.1 (≈ 12.5 µg/mL) | no reduction in cell viability at the concentrations required for antibacterial activity | did not inhibit | did not inhibit
C/C=C(/C)[C@H]1C/C=C(\C)[C@@H](O[C@H]2O[C@H](CO)[C@@H](O)[C@@H]2O)[C@H](O)C(=O)CC[C@H](C)C(=O)O1 [Compound 4, gulmirecin B] | no reduction in cell viability at the concentrations required for antibacterial activity | 17 | 19 | – | – | no reduction in cell viability at the concentrations required for antibacterial activity | did not inhibit | did not inhibit
